Some test systems named below: A498; A549; CCRF-CEM; COLO 205; DU-145; HOP-92; Hs-578T; K562; LOX IMVI; MCF7; MOLT-4; NCI-H460; PC-3; RXF 393; SK-MEL-28; SN12C; SNB-75; SW-620; UACC-62; UO-31.
Assay in all cases: NCI tumour cell line growth inhibition, 48 h

This is an account of results in ChEMBL document CHEMBL1201862, “PubChem BioAssay data set” (2004).

Each structure is given as a SMILES string.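 The compound was tested at five concentrations on cells cultured in 96-well plates, with a 48-hour exposure period. Abbreviation: GI50, concentration required for 50% inhibition of growth.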 Activity calls are given as the source filed them. Rule as the data show it: active = GI50 up to about 1.1 µM and inactive = higher. Where only a bound is given, the exact number is not on record here.

Regarding `COP(=O)(OC)c1ccc(NCc2cc(O)ccc2O)cc1`, the GI50 was 92.7 µM (inactive) with A498; > 100 µM (inactive) in the assay on A549; 18.8 µM (inactive) in the assay on CCRF-CEM; 27.7 µM (inactive) with COLO 205; 36.8 µM (inactive) in the assay on DU-145; 21.4 µM (inactive) in the assay on HOP-92. The GI50 is 24.8 µM (inactive) in the assay on Hs-578T; 30.5 µM (inactive) in the assay on K562; 26.3 µM (inactive) with LOX IMVI; 28.8 µM (inactive) in the assay on MCF7; 30.2 µM (inactive) in the assay on MOLT-4; 22.1 µM (inactive) in the assay on NCI-H460. The GI50 in the assay on PC-3 is > 60.4 µM (inactive); in the assay on RXF 393, 25.3 µM (inactive); in the assay on SK-MEL-28, 30.2 µM (inactive); in the assay with SN12C it was 30.3 µM (inactive); with SNB-75 it was 29.5 µM (inactive); in the assay on SW-620, 42 µM (inactive). The GI50 was 19.5 µM (inactive) in the assay on UACC-62 and 15.5 µM (inactive) in the assay on UO-31.

In the case of `CC1/C=C/C=C/CC/C=C/C=C/C=C/C=C/C(OC2OC(C)C(O)C(N)C2O)CC2OC(CC(O)C(O)CCC(O)CC(O)CC(O)CC(=O)OC(C)C(C)C1O)CC(O)C2C(=O)O` (stereo not given), the GI50 is 18.7 µM (inactive) in the assay with A498; 18 µM (inactive) with A549; 28.8 µM (inactive) in the assay with CCRF-CEM; 21.8 µM (inactive) in the assay with COLO 205; 17.7 µM (inactive) in the assay with DU-145; 45.6 µM (inactive) in the assay on HOP-92. The GI50 was 24.8 µM (inactive) with Hs-578T; 34.4 µM (inactive) in the assay with K562; 18.2 µM (inactive) in the assay on LOX IMVI; 17.5 µM (inactive) with MCF7; 20.2 µM (inactive) with MOLT-4; 17.5 µM (inactive) with NCI-H460. Also, the GI50 was 18.8 µM (inactive) with PC-3; 13.8 µM (inactive) with RXF 393; 19.7 µM (inactive) in the assay on SK-MEL-28; 15.9 µM (inactive) in the assay with SN12C; 18.6 µM (inactive) in the assay with SNB-75; 20.7 µM (inactive) in the assay with SW-620. Also, the GI50 in the assay on UACC-62 was 20.9 µM (inactive); in the assay on UO-31 it was 21 µM (inactive).

On to `COc1cc(C=O)cc(/C=N/c2ccccn2)c1O`, for which the GI50 with A498 is 9.64 µM (inactive); in the assay with A549, 32 µM (inactive); in the assay with CCRF-CEM, 4.67 µM (inactive); in the assay on COLO 205, 7.08 µM (inactive); with DU-145 it was > 100 µM (inactive); in the assay with HOP-92 it was 2.72 µM (inactive). For the same compound, the GI50 is 4.63 µM (inactive) in the assay with Hs-578T; 61.1 µM (inactive) in the assay on K562; 14.1 µM (inactive) in the assay with LOX IMVI; 52.1 µM (inactive) with MCF7; 24.5 µM (inactive) in the assay with MOLT-4; 19.5 µM (inactive) in the assay on NCI-H460. In addition, the GI50 in the assay with PC-3 was 3.64 µM (inactive); in the assay on RXF 393 it was 1.56 µM (inactive); in the assay with SK-MEL-28 it was 3.32 µM (inactive); in the assay with SN12C, 12.6 µM (inactive); with SNB-75, 3.78 µM (inactive); with SW-620, 31.6 µM (inactive). The GI50 in the assay with UACC-62 was 30 µM (inactive); in the assay on UO-31, 3.34 µM (inactive).

With `CC(C)(C)N1NC1C1NN1C(C)(C)C` (stereo not given), the GI50 in the assay on A498, in the assay on A549, in the assay with CCRF-CEM, with COLO 205, with DU-145 and in the assay with HOP-92 was > 100 µM (inactive) each time. Also, the GI50 with Hs-578T, in the assay on K562, in the assay with LOX IMVI, with MCF7, in the assay with MOLT-4 and with NCI-H460 was > 100 µM (inactive) in each case. The GI50 in the assay with PC-3, in the assay with RXF 393, with SK-MEL-28, in the assay on SN12C, in the assay on SNB-75 and with SW-620 was > 100 µM (inactive) in each case. The GI50 with UACC-62 and in the assay with UO-31 was > 100 µM (inactive) in each case.

As to `N#CCCN(CCCN(CCCN(C(=O)Nc1ccccc1)c1ccccc1)C(=O)Nc1ccccc1)C(=O)Nc1ccccc1`, the GI50 was > 8.75 µM (inactive) in the assay on A498; > 8.75 µM (inactive) in the assay on A549; 6.14 µM (inactive) with CCRF-CEM; > 8.75 µM (inactive) in the assay on COLO 205; > 8.75 µM (inactive) in the assay on DU-145; 20.2 µM (inactive) with HOP-92. The GI50 in the assay with Hs-578T was 73.5 µM (inactive); in the assay on K562 it was > 8.75 µM (inactive); with LOX IMVI, > 100 µM (inactive); in the assay on MCF7, > 8.75 µM (inactive); in the assay on MOLT-4, > 8.75 µM (inactive); in the assay with NCI-H460, > 8.75 µM (inactive). Moreover, the GI50 with PC-3, in the assay on RXF 393, in the assay on SK-MEL-28, in the assay with SN12C, with SNB-75 and in the assay with SW-620 was > 8.75 µM (inactive) in each case. The GI50 in the assay with UACC-62 and with UO-31 was > 8.75 µM (inactive) each time.

As to `O=C(NC(=O)c1ccccc1[N+](=O)[O-])Nc1ccc(Oc2ncc(Br)cn2)c(Cl)c1`, the GI50 was 0.0225 µM (active) in the assay with A498; 0.0428 µM (active) in the assay with A549; 0.0284 µM (active) in the assay with CCRF-CEM; 0.046 µM (active) in the assay on COLO 205; 0.0318 µM (active) with DU-145; 0.0495 µM (active) in the assay on HOP-92. Further, the GI50 is 0.0342 µM (active) in the assay on Hs-578T; 0.0194 µM (active) with K562; 0.0528 µM (active) with LOX IMVI; 0.0265 µM (active) in the assay with MCF7; 0.033 µM (active) in the assay on MOLT-4; 0.0252 µM (active) with NCI-H460. Besides, the GI50 with PC-3 is 0.029 µM (active); with RXF 393 it was 0.00771 µM (active); in the assay with SK-MEL-28 it was 0.0286 µM (active); in the assay with SN12C, 0.0398 µM (active); with SNB-75, 0.0231 µM (active); in the assay on SW-620 it was 0.0237 µM (active). Moreover, the figures for the GI50 in the assay with UACC-62 and with UO-31 were 0.019 µM (active) and 0.0281 µM (active), respectively.

Turning to `COC(=O)[C@H](Cc1ccccc1)NC(=O)N1CCCN(C(=O)N[C@@H](Cc2ccccc2)C(=O)OC)CCCN(C(=O)N[C@@H](Cc2ccccc2)C(=O)OC)CCC1`, the GI50 in the assay on A498 was 19.9 µM (inactive); in the assay on A549, 27.9 µM (inactive); in the assay on CCRF-CEM, 32.5 µM (inactive); in the assay on COLO 205, 18 µM (inactive); in the assay with DU-145, 18.4 µM (inactive); with HOP-92, 16 µM (inactive). In addition, the GI50 in the assay with Hs-578T was 20.7 µM (inactive); in the assay on K562 it was 61.1 µM (inactive); with LOX IMVI, 15.3 µM (inactive); with MCF7, 18.2 µM (inactive); in the assay on MOLT-4, 17.7 µM (inactive); with NCI-H460 it was 27.7 µM (inactive). Further, the GI50 with PC-3 is 15.8 µM (inactive); in the assay with RXF 393 it was 16.9 µM (inactive); in the assay on SK-MEL-28, 19.4 µM (inactive); in the assay on SN12C, 19.6 µM (inactive); in the assay on SNB-75, 16.1 µM (inactive); in the assay on SW-620 it was 19.5 µM (inactive). The GI50 was 16.2 µM (inactive) in the assay with UACC-62 and 15.9 µM (inactive) in the assay with UO-31.

As to `COc1ccc(NC(=O)N(C)CC2(O)CCC(C(C)(C)C)CC2)cc1` (stereo not given), the GI50 is 81.3 µM (inactive) in the assay with A498; 90.6 µM (inactive) in the assay with A549; 42.5 µM (inactive) in the assay on CCRF-CEM; 36.1 µM (inactive) in the assay on COLO 205; > 100 µM (inactive) in the assay with DU-145; 3.66 µM (inactive) in the assay with HOP-92. The GI50 is 33.9 µM (inactive) in the assay with Hs-578T; 66.2 µM (inactive) in the assay on K562; 25.2 µM (inactive) in the assay on LOX IMVI; 19.4 µM (inactive) in the assay with MCF7; 52.6 µM (inactive) in the assay with MOLT-4; 59.6 µM (inactive) in the assay on NCI-H460. For the same compound, the GI50 in the assay on PC-3 was 14.7 µM (inactive); in the assay with RXF 393 it was 24.8 µM (inactive); in the assay with SK-MEL-28, > 100 µM (inactive); in the assay on SN12C, > 100 µM (inactive); in the assay on SNB-75 it was 52.6 µM (inactive); in the assay with SW-620 it was > 100 µM (inactive). Also, the GI50 with UACC-62 was 35.5 µM (inactive); with UO-31 it was 30.6 µM (inactive).

For `Cn1c(-c2ccc[se]2)ccc1-c1ccc(CO)[se]1`, the GI50 in the assay on A498 is 0.0389 µM (active); in the assay with A549, 52.6 µM (inactive); with CCRF-CEM, 17.1 µM (inactive); in the assay on COLO 205, 0.367 µM (active); in the assay with DU-145, 35.9 µM (inactive); with HOP-92, 7.41 µM (inactive). In addition, the GI50 is 33 µM (inactive) in the assay on Hs-578T; 0.159 µM (active) in the assay on K562; 21.8 µM (inactive) in the assay on LOX IMVI; 0.0139 µM (active) with MCF7; 21.1 µM (inactive) in the assay on MOLT-4; 0.0206 µM (active) in the assay on NCI-H460. The GI50 was 42.5 µM (inactive) in the assay with PC-3; 0.239 µM (active) in the assay on RXF 393; 52.8 µM (inactive) in the assay on SK-MEL-28; > 76.6 µM (inactive) in the assay with SN12C; > 49.4 µM (inactive) in the assay on SNB-75; 0.133 µM (active) in the assay with SW-620. The GI50 in the assay with UACC-62 is 0.045 µM (active); in the assay with UO-31 it was 36.3 µM (inactive).

As for `COc1ccccc1C1(c2c(OC)c(=O)c2=O)SCCCS1`, the GI50 in the assay on A498 was 49 µM (inactive); with A549, 74.8 µM (inactive); in the assay on CCRF-CEM, 82.6 µM (inactive); with COLO 205 it was > 100 µM (inactive); in the assay on DU-145, > 100 µM (inactive); with HOP-92, 19.2 µM (inactive). For the same compound, the GI50 is 35 µM (inactive) in the assay on Hs-578T; > 100 µM (inactive) with K562; 60.3 µM (inactive) with LOX IMVI; > 100 µM (inactive) in the assay with MCF7; 72.4 µM (inactive) with MOLT-4; > 100 µM (inactive) in the assay on NCI-H460. In addition, the GI50 in the assay with PC-3 is > 100 µM (inactive); in the assay on RXF 393, 44.5 µM (inactive); in the assay on SK-MEL-28, > 100 µM (inactive); with SN12C, 36.6 µM (inactive); in the assay with SNB-75 it was 71.8 µM (inactive); in the assay on SW-620 it was > 100 µM (inactive). The GI50 with UACC-62 and with UO-31 was > 100 µM (inactive) each time.
